Laboratory results taken from patent publication US6630303B1, “Methods of screening for compounds active on Staphylococcus aureus target genes” (priority 1995, dated 2003).

Tests used:
[1] = system: Salmonella wild type parent strain; assay: Carbon source utilization profile (gene sensor methodology); assay type: cell-based; details: sublethal concentration; carbon source not used by the dapA or murCEFG mutant
Excerpt: The growth conditional mutants are also used in gene sensor methodology, e.g., using carbon utilization profiles. Ts mutants fail to metabolize different carbon sources in semi-permissive growth conditions. The carbon sources not utilized by a specific mutant or group of mutants provide additional phenotypes associated with the crippled essential function. Moreover, some of these carbon source markers were also not used by the wild type strain exposed to sub-MIC concentrations of known drugs affecting the same specific cellular targets or pathways.

[2] = system: ts S. typhimurium mutant alleles of the gyrase subunit A; assay: Hypersusceptibility (MIC) of S. typhimurium gyrA ts mutants at semi-permissive temperature; assay type: cell-based, Salmonella typhimurium
Procedure: As an illustration of the hypersusceptibility profiles for a group of bacterial ts mutant strains, the minimal inhibitory concentrations (MICs) of various drugs and toxic agents were determined for a set of Salmonella typhimurium temperature-sensitive essential gene mutants.
The MICs were measured by using a standard micro broth dilution technique following the recommendations of the National Committee for Clinical Laboratory Standards (1994). Bacteria were first grown in Mueller-Hinton broth at 30° C., diluted to 10^5 cfu/ml and used to inoculate 96-microwell plates containing two-fold dilutions of antibiotics in Mueller-Hinton broth. Plates were incubated for 20 h at a semi-permissive temperature (35° C.) and the MIC was determined as the lowest dilution of antibiotic preventing visible growth.
A two-fold difference in the susceptibility level of the mutant strain compared to that of the parental strain is within the limits of the experimental variation and thus a ≧4-fold decrease in MIC was considered as a significant hypersusceptibility.
The specific hypersensitivity of temperature sensitive mutations in a known target to inhibitors of that target is shown in FIG. 1 with the susceptibility profile of three ts S. typhimurium mutant alleles of the gyrase subunit A (gyrA212, gyrA215 and gyrA216) grown at a semi-permissive temperature (35° C.).

[3] = mutant gyrA222, semi-permissive temperature 35° C.
[4] = mutant gyrA215, semi-permissive temperature 35° C.

Row | Compound | carbon source metabolism [1] | hypersusceptibility compared to wild-type parent strain [2, 3] | hypersusceptibility compared to wild-type parent strain [2, 4] | hypersusceptibility compared to wild-type parent strain ([2]; mutant gyrA276, semi-permissive temperature 35° C.)
1 | Cn1nnnc1SCC1=C(C(=O)O)N2C(=O)[C@@H](NC(=O)[C@H](O)c3ccccc3)[C@H]2SC1 [cefamandole] | prevented the Salmonella wild type parent strain from metabolizing the same carbon source | – | – | –
2 | O=C(O)c1cn(C2CC2)c2cc(N3CCNCC3)c(F)cc2c1=O [ciprofloxacin] | – | hypersusceptibility | – | –
3 | CCn1cc(C(=O)O)c(=O)c2cc(F)c(N3CCNCC3)cc21 [norfloxacin] | – | hypersusceptibility | hypersusceptibility | –
4 | coumermycin | – | – | hypersusceptibility | hypersusceptibility
